In US9518284B2 (priority 2001, dated 2016):
Like-named read-outs stand apart in the source and are kept apart here.

System: yeast cells overexpressing WT alpha-synuclein
Assay type: cell-based, Saccharomyces cerevisiae
[1] = preliminary study, concentration not given
[2] = preliminary study, agent at 5 μM

**Q.** C=CCC(N)C(=O)O (racemic) [DL-C-allylglycine] was tested. Which “ability to alleviate toxicity caused by alpha-synuclein overexpression” value (“ability to alleviate toxicity caused” below) (preliminary study, agent at 0.025 mg/ml) did it give?
**A.** alleviate toxocity

**Q.** O=c1cn[nH]c(=O)[nH]1 [6-azauracil] was tested. Which “effect on the growth of yeast cells overexpressing WT alpha-synuclein” value (“effect on the growth” below) (agent at 30 μg/ml) did it give?
**A.** negative effect on the growth

**Q.** How did the “ability to alleviate toxicity caused” value [1] turn out when C[C@@H](O)CC(=O)O [(R)-(−)-3-hydroxybutirate] was run?
**A.** alleviate toxocity

**Q.** [Ca+2].[Cl-].[Cl-] [CaCl2] was tested. Which “effect on the growth” value (agent at 0.5 M) did it give?
**A.** negative effect on the growth

**Q.** For [Cl-].[Cl-].[Co+2] [CoCl2], which “effect on the growth” value is on record?
**A.** negative effect on the growth

**Q.** With Nc1c(/N=N/c2ccc(-c3ccc(/N=N/c4cc(S(=O)(=O)O)c5ccccc5c4N)cc3)cc2)cc(S(=O)(=O)O)c2ccccc12 [Congo Red] as the compound, how does the “ability to alleviate toxicity caused” value [2] read?
**A.** alleviate toxocity

**Q.** [Cl-].[Cs+] [CsCl] was tested. Which “effect on the growth” value (agent at 0.1 M) did it give?
**A.** negative effect on the growth

**Q.** What does the source list for O=S(=O)([O-])[O-].[Cu+2] [CuSo4]?
**A.** effect on the growth of yeast cells overexpressing WT alpha-synuclein (agent at 2.5 mM): negative effect on the growth; effect on the growth of yeast cells overexpressing WT alpha-synuclein (agent at 5 mM): negative effect on the growth

**Q.** C[C@]12CC[C@H]3[C@@H](CCC4=CC(=O)CC[C@@]43C)[C@@H]1CC[C@@H]2C(=O)CO [Deoxycorticosterone] was tested. Which “ability to alleviate toxicity caused” value [1] did it give?
**A.** alleviate toxocity

**Q.** How did the “effect on the growth” value (agent at 8.5 mM) turn out when O=S(=O)([O-])[O-].O=S(=O)([O-])[O-].O=S(=O)([O-])[O-].[Fe+3].[Fe+3] [Fe2(SO4)3] was run?
**A.** negative effect on the growth

**Q.** What does the source list for [Cl][Fe][Cl] [FeCl2]?
**A.** effect on the growth of yeast cells overexpressing WT alpha-synuclein (agent at 10 mM): negative effect on the growth; effect on the growth of yeast cells overexpressing WT alpha-synuclein (agent at 15 mM): negative effect on the growth; effect on the growth of yeast cells overexpressing WT alpha-synuclein (agent at 23 mM): negative effect on the growth; effect on the growth of yeast cells overexpressing WT alpha-synuclein (agent at 50 mM): negative effect on the growth

**Q.** How did the “effect on the growth” value (agent at 20 mM) turn out when O=S(=O)([O-])[O-].[Fe+2] [FeSO4] was run?
**A.** negative effect on the growth

**Q.** Which “effect on the growth” value (agent at 20 (unit not given)) does the source give for Cl.N=C(N)N [GuHCl] here?
**A.** negative effect on the growth

**Q.** CN[C@H]1C[C@@H](N)[C@H](O)[C@@H](O[C@@H]2O[C@H](CO)[C@H](O)[C@@H]3OC4(O[C@H]23)O[C@H]([C@@H](N)CO)[C@H](O)[C@H](O)[C@H]4O)[C@@H]1O (some centres unmarked) [Hygromycin B] was tested. Which “ability to alleviate toxicity caused” value (preliminary study, agent at 50 μg/ml) did it give?
**A.** alleviate toxocity

**Q.** With N[C@@H](Cc1ccc(O)c(O)c1)C(=O)O [L-DOPA, L-dihydroxyphenylalanine] as the compound, how does the “ability to alleviate toxicity caused” value [1] read?
**A.** alleviate toxocity

**Q.** CCSCC[C@H](N)C(=O)O [L-ethionine] was tested. Which “ability to alleviate toxicity caused” value (preliminary study, agent at 1 μg/ml) did it give?
**A.** alleviate toxocity

**Q.** Which “effect on the growth” value (agent at 0.5 M) does the source give for [Cl-].[Cl-].[Mg+2] [MgCl2] here?
**A.** negative effect on the growth

**Q.** How did the “effect on the growth” value (agent at 0.5 M) turn out when O=S(=O)([O-])[O-].[Mg+2] [MgSO4] was run?
**A.** negative effect on the growth

**Q.** Which “effect on the growth” value (agent at 0.2 M) does the source give for [Cl-].[Rb+] [RbCl] here?
**A.** negative effect on the growth

**Q.** For [Cl-].[Cl-].[Sr+2] [SrCl2], which “effect on the growth” value (agent at 0.5 M) is on record?
**A.** negative effect on the growth

**Q.** For O=C[C@@H](O)[C@H](O)[C@H](O)CO [arabinose], which “effect on the growth” value (agent at 2% in medium) is on record?
**A.** negative effect on the growth

**Q.** With C[C@H]1CCC/C=C/[C@@H]2C[C@H](O)C[C@H]2[C@H](O)/C=C/C(=O)O1 [brefeldin A] as the compound, how does the “effect on the growth” value (agent at 100 μg/ml) read?
**A.** negative effect on the growth

**Q.** CC[C@@]1(O)C(=O)OCc2c1cc1n(c2=O)Cc2cc3ccccc3nc2-1 [camptothecin] was tested. Which “effect on the growth” value (agent at 5 μg/ml) did it give?
**A.** negative effect on the growth

**Q.** What about the “ability to alleviate toxicity caused” value (preliminary study, agent at 0.1 μg/ml) of the same compound?
**A.** alleviate toxocity

**Q.** For O=C(O)CCCc1ccc(N(CCCl)CCCl)cc1 [chlorambucil], which “effect on the growth” value (agent at 3 mM) is on record?
**A.** negative effect on the growth

**Q.** How did the “ability to alleviate toxicity caused” value (preliminary study, agent at 4.2 μM) turn out when CCN(CC)CCCC(C)Nc1ccnc2cc(Cl)ccc12 (centres unmarked) [chloroquine] was run?
**A.** alleviate toxocity

**Q.** O=C(O)c1cc(/N=N/c2ccc(-c3ccc(/N=N/c4ccc(O)c(C(=O)O)c4)cc3)cc2)ccc1O [chrysamine G] was tested. Which “ability to alleviate toxicity caused” value (preliminary study, agent at 1.0 μM) did it give?
**A.** alleviate toxocity

**Q.** Oc1c(I)cc(Cl)c2cccnc12 [clioquinol] was tested. Which “ability to alleviate toxicity caused” value [2] did it give?
**A.** alleviate toxocity

**Q.** How did the “effect on the growth” value (agent at 2% in medium) turn out when NC=O [formamide] was run?
**A.** negative effect on the growth

**Q.** Which “ability to alleviate toxicity caused” value does the source give for N[C@@H](CCC(=O)N[C@@H](CS)C(=O)NCC(=O)O)C(=O)O [glutathione] here?
**A.** alleviate toxocity

**Q.** Which “effect on the growth” value (agent at 5 mg/ml) does the source give for NC(=O)NO [hydroxyurea] here?
**A.** negative effect on the growth

**Q.** With CC1=CC(=O)c2ccccc2C1=O [menadione] as the compound, how does the “effect on the growth” value (agent at 20-50 μM) read?
**A.** negative effect on the growth

**Q.** C[n+]1ccc(-c2cc[n+](C)cc2)cc1 [paraquat] was tested. Which “effect on the growth” value (agent at 1 mM) did it give?
**A.** negative effect on the growth

**Q.** Which “ability to alleviate toxicity caused” value (preliminary study, agent at 200 μg/ml) does the source give for NC[C@@H]1O[C@H](O[C@H]2[C@@H](O)[C@H](O[C@@H]3[C@@H](O)[C@H](N)C[C@H](N)[C@H]3O[C@H]3O[C@H](CO)[C@@H](O)[C@H](O)[C@H]3N)O[C@@H]2CO)[C@H](N)[C@@H](O)[C@@H]1O [paromomycin] here?
**A.** alleviate toxocity

**Q.** With N[C@@H](CO)C(=O)O [serine] as the compound, how does the “ability to alleviate toxicity caused” value (preliminary study, agent at 1 mg/ml) read?
**A.** alleviate toxocity

**Q.** How did the “effect on the growth” value (agent at 1 mg/ml) turn out when NC(N)=O [urea] was run?
**A.** negative effect on the growth

**Q.** With [O]=[V]([O-])([O-])[O-] [vanadate] as the compound, how does the “effect on the growth” value (agent at 0.1 mM) read?
**A.** negative effect on the growth

**Q.** What about the “effect on the growth” value (agent at 1 mM) of the same compound?
**A.** negative effect on the growth

**Q.** And the “effect on the growth” value (agent at 2 mM)?
**A.** negative effect on the growth

**Q.** And the “effect on the growth” value (agent at 4 mM)?
**A.** negative effect on the growth

**Q.** What about the “effect on the growth” value (agent at 7 mM+KCl) of the same compound?
**A.** negative effect on the growth

**Q.** With bleomycin as the compound, how does the “effect on the growth” value (agent at 1 μg/ml) read?
**A.** negative effect on the growth

**Q.** How did the “ability to alleviate toxicity caused” value (preliminary study, agent at 250 μM) turn out when protamine sulphate was run?
**A.** alleviate toxocity
